Source: paper PMC6835155, “Lessons from LIMK1 enzymology and their impact on inhibitor design” (Biochemical Journal, 2019)
Where two headings read alike, the source gives them in different places.

Tests used:
[1] = target: T1, LIMK2KD (Homo sapiens, UniProt P53671); assay: Differential (dynamic) scanning fluorimetry (DSF) assay, LIMK2KD; assay type: binding
T1 construct: The cDNA coding for LIMK2 residues 330 to 632 was PCR amplified; His6 (N, cleaved yes); made in house; host or cells: baculovirus; Sf9 for virus, TriEx insect cells for expression
T1 sequence (P53671 330-632): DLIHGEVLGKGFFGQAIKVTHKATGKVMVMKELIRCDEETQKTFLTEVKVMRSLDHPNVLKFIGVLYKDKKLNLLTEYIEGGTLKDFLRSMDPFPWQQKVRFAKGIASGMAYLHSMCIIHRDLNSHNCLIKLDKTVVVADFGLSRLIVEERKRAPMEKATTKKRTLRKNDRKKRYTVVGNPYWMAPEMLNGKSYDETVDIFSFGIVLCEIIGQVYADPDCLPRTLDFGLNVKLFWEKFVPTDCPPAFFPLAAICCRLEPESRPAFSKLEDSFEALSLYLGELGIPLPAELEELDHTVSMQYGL

[2] = target: T2, LIMK1KD (Homo sapiens, UniProt P53667); assay: Differential (dynamic) scanning fluorimetry (DSF) assay, LIMK1KD; assay type: binding; details: for ΔTm at 10 µM: read-out: TM Shift LIMK1 (K)
T2 construct: His6 (N, cleaved yes); made in house; host or cells: baculovirus; Sf9 for virus, TriEx insect cells for expression
T2 sequence (P53667 330-637): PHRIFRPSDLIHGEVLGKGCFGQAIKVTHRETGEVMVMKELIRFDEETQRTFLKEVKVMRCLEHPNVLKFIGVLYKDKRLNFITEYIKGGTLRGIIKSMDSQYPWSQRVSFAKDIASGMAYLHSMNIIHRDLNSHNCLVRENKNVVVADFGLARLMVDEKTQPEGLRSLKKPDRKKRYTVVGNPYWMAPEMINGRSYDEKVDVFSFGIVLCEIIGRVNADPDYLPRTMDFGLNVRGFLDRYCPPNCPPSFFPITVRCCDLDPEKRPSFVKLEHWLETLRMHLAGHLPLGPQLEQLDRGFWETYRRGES

[3] = LIMK2KD, compound 10 µM, single shot, read-out: TM Shift LIMK2 (K)
[4] = 2 µM LIMK1KD, compound 10 µM, single shot
[5] = LIMK2KD, compound 10 µM, single shot
[6] = LIMK2KD, compound 10 µM, single shot, 10 µM

Row | SMILES | ΔTm at 10 µM [1, 3] [°C] | ΔTm at 10 µM [2, 4] [°C] | TM Shift LIMK1 (K) [2, 4] [K] | also measured
1 | CCN1CCN(Cc2ccc(Nc3ncc(F)c(-c4cc(F)c5nc(C)n(C(C)C)c5c4)n3)nc2)CC1 [LY2835219] | 0.3 | 0.9 | – | –
2 | C[C@@H](Oc1ccc2[nH]nc(/C=C/c3cnn(CCO)c3)c2c1)c1c(Cl)cncc1Cl [LY2874455] | 0.1 | 2.5 | – | –
3 | CS(=O)(=O)CCNCc1ccc(-c2ccc3ncnc(Nc4ccc(OCc5cccc(F)c5)c(Cl)c4)c3c2)o1 [Lapatinib (GW-572016) Ditosylate, Lapatinib] | 1.8 | 0.2 | – | –
4 | COc1cc2nccc(Oc3ccc(NC(=O)NC4CC4)c(Cl)c3)c2cc1C(N)=O [Lenvatinib (E7080), Lenvatinib] | 0.1 | 0.7 | – | –
5 | C[C@]12O[C@H](C[C@]1(O)CO)n1c3ccccc3c3c4c(c5c6ccccc6n2c5c31)CNC4=O [Lestaurtinib] | – | 5 | – | ΔTm at 10 µM ([1]; read-out: TM Shift LIMK2 (K), LIMK2KD, compound 10 µM, single shot): 2 °C
6 | Cc1ccc(F)c(NC(=O)Nc2ccc(-c3cccc4[nH]nc(N)c34)cc2)c1 [Linifanib] | 5 | 2 | – | –
7 | C[C@]1(O)C[C@@H](c2nc(-c3ccc4ccc(-c5ccccc5)nc4c3)c3c(N)nccn32)C1 [Linsitinib] | 0.9 | – | 0.8 | TM Shift LIMK2 (K) ([1]; LIMK2KD, compound 10 µM, single shot, listed as OSI-906 (Linsitinib), 10 µM): 0.7 K; TM Shift LIMK1 (K) ([2]; 2 µM LIMK1KD, compound 10 µM, single shot, listed as OSI-906 (Linsitinib)): 0.2 K
8 | Cn1cnc2c(F)c(Nc3ccc(Br)cc3F)c(C(=O)NOCCO)cc21 [MEK162 (ARRY-162, ARRY-438162)] | 2.1 | 0.4 | – | –
9 | COCCNCc1ccc(-c2cc3nccc(Oc4ccc(NC(=S)NC(=O)Cc5ccc(F)cc5)cc4F)c3s2)nc1 [MGCD-265] | 1.1 | 3.6 | – | –
10 | C=CCn1c(=O)c2cnc(Nc3ccc(N4CCN(C)CC4)cc3)nc2n1-c1cccc(C(C)(C)O)n1 [MK-1775] | 0 | 1.2 | – | –
11 | Cl.Cl.NC1(c2ccc(-c3nc4ccn5c(=O)[nH]nc5c4cc3-c3ccccc3)cc2)CCC1 [MK-2206 2HCl] | – | – | 0.4 | TM Shift LIMK2 (K) [1, 5]: -1.1 K
12 | CN(C[C@@H]1COCCO1)S(=O)(=O)Nc1ccc2ccc3ncc(-c4cnn(C)c4)cc3c(=O)c2c1 [MK-2461] | 0.3 | 0.8 | – | –
13 | O=C(O)[C@]1(Cc2cccc(Nc3nccs3)n2)CC[C@@H](Oc2cccc(Cl)c2F)CC1 [MK-5108 (VX-689)] | 0.9 | 1.5 | – | –
14 | O=C(c1cccc(Cl)c1F)N1CCN(Cc2cccc(Nc3nccs3)n2)CC1 [MK-8745] | – | – | 1.0 | TM Shift LIMK2 (K) [1, 5]: -0.3 K
15 | Cn1cc(-c2cnn3c(N)c(Br)c([C@@H]4CCCNC4)nc23)cn1 [MK-8776 (SCH 900776)] | – | – | – | ΔTm at 10 µM ([1]; read-out: TM Shift LIMK2 (K)): 2.2 °C; ΔTm at 10 µM [2]: 1.8 °C
16 | O=C(O)c1ccc(Nc2ncc3c(n2)-c2ccc(Cl)cc2C(c2c(F)cccc2F)=NC3)cc1 [MLN8054] | 1 | -0.4 | – | –
17 | Cc1ccc(NC(=O)c2ccc(CN3CCN(C)CC3)cc2)cc1Nc1nc(-c2cccnc2)cs1 [Masitinib (AB1010), Masitinib] | 0 | 0.4 | – | –
18 | CO[C@@H]1[C@H](N(C)C(=O)c2ccccc2)C[C@H]2O[C@]1(C)n1c3ccccc3c3c4c(c5c6ccccc6n2c5c31)C(=O)NC4 [Midostaurin] | 0 | 0.1 | – | –
19 | CNC(=O)c1nn(C)c2c1C(C)(C)Cc1cnc(Nc3ccc(N4CCN(C)CC4)cc3)nc1-2 [Milciclib (PHA-848125), Milciclib] | 0.6 | 0.2 | – | –
20 | N#CCNC(=O)c1ccc(-c2ccnc(Nc3ccc(N4CCOCC4)cc3)n2)cc1 [Momelotinib] | – | – | 6.3 | TM Shift LIMK2 (K) [1, 6]: 4.2 K
21 | CC1(C)CNc2cc(NC(=O)c3cccnc3NCc3ccncc3)ccc21 [Motesanib Diphosphate (AMG-706), Motesanib Diphosphate] | 0.5 | 0.6 | – | –

Row | SMILES | ΔTm at 10 µM [1, 3] [°C] | ΔTm at 10 µM [2, 4] [°C] | TM Shift LIMK1 (K) [2, 4] [K] | also measured
22 | FC(F)(F)c1ccc(/C=C/c2nc(COc3ccc(CCCCn4ccnn4)cc3)co2)cc1 [Mubritinib (TAK 165), Mubritinib] | -0.4 | 0.6 | – | –
23 | CCN(CC)CCCC(C)Nc1nc(C)cc(Nc2ccc3nc(C)cc(N)c3c2)n1 (stereo not shown) [NSC 23766] | – | – | 0.0 | TM Shift LIMK2 (K) [1, 5]: -2.2 K
24 | Nc1nc(N)c(N=O)c(OCC2CCCCC2)n1 [NU6027] | -0.9 | 0.8 | – | –
25 | O=c1cc(N2CCOCC2)oc2c1ccc1ccccc12 [NU7026] | – | – | -0.7 | TM Shift LIMK2 (K) [1, 5]: 3.0 K
26 | O=c1cc(N2CCOCC2)oc2c(-c3cccc4c3sc3ccccc34)cccc12 [NU7441 (KU-57788)] | – | – | 0.5 | TM Shift LIMK2 (K) [1, 5]: -0.9 K
27 | Nc1ncnc2c1c(-c1cccc(OCc3ccccc3)c1)cn2C1CC(CN2CCCC2)C1 (stereo not shown) [NVP-ADW742] | – | – | 0.2 | TM Shift LIMK2 (K) [1, 5]: 0.1 K
28 | Nc1ncnc2c1c(-c1cccc(OCc3ccccc3)c1)cn2[C@H]1C[C@@H](CN2CCC2)C1 [NVP-AEW541] | 0.4 | -0.2 | – | –
29 | CCN1CCN(c2ccc(Nc3cc(N(C)C(=O)Nc4c(Cl)c(OC)cc(OC)c4Cl)ncn3)cc2)CC1 [NVP-BGJ398] | – | – | 0.0 | TM Shift LIMK2 (K) [1, 6]: -0.5 K; TM Shift LIMK2 (K) ([1]; LIMK2KD, compound 10 µM, single shot, listed as BGJ398 (NVP-BGJ398), 10 µM): 0.5 K; TM Shift LIMK1 (K) ([2]; 2 µM LIMK1KD, compound 10 µM, single shot, listed as BGJ398 (NVP-BGJ398)): 0.7 K
30 | Cc1ccc(C(=O)Nc2cccc(C(F)(F)F)c2)cc1Nc1nc(-c2cccnc2)nc2c1cnn2C [NVP-BHG712] | – | – | -0.2 | TM Shift LIMK2 (K) [1, 5]: 1.6 K
31 | Fc1cc(-c2cccc3ncc(-c4cnn(C5CCNCC5)c4)nc23)cc(F)c1CN1CCOCC1 [NVP-BSK805 2HCl] | – | – | 1.5 | TM Shift LIMK2 (K) [1, 5]: 0.2 K
32 | Cn1cc(-c2ccc3ncc(Cc4ccc5ncccc5c4)n3n2)cn1 [NVP-BVU972] | – | – | -0.5 | TM Shift LIMK2 (K) [1, 5]: 2.9 K
33 | CCOc1cc2ncc(C#N)c(Nc3ccc(OCc4ccccn4)c(Cl)c3)c2cc1NC(=O)/C=C/CN(C)C [Neratinib (HKI-272), Neratinib] | – | 0.2 | – | ΔTm at 10 µM ([1]; read-out: TM Shift LIMK2 (K)): 1 °C
34 | Cc1cn(-c2cc(NC(=O)c3ccc(C)c(Nc4nccc(-c5cccnc5)n4)c3)cc(C(F)(F)F)c2)cn1 [Nilotinib (AMN-107), Nilotinib] | 0.4 | 0.5 | – | –
35 | COC(=O)c1ccc2c(c1)NC(=O)/C2=C(\Nc1ccc(N(C)C(=O)CN2CCN(C)CC2)cc1)c1ccccc1 [Nintedanib] | 0.3 | 1.3 | – | –
36 | COc1cccc2cc(-c3nc([C@H]4CC[C@H](C(=O)O)CC4)n4ncnc(N)c34)[nH]c12 [OSI-027] | 0.2 | 2.2 | – | –
37 | C#Cc1cccc(Nc2ncnc3cc(OCCOC)c(OCCO)cc23)c1 [OSI-420] | – | – | 0.1 | TM Shift LIMK2 (K) [1, 5]: -0.1 K
38 | O=C(Nc1ccc(OC(F)(F)F)cc1)c1sccc1NCc1ccnc2ccccc12 [OSI-930] | 6.2 | 0.7 | – | –
39 | NCC(=O)Nc1ccc(-n2nc(C(F)(F)F)cc2-c2ccc3c(ccc4ccccc43)c2)cc1 [OSU-03012 (AR-12)] | – | – | -1.2 | TM Shift LIMK2 (K) [1, 5]: 0.8 K
40 | Cc1[nH]c(/C=C2\C(=O)Nc3ccccc32)c(C)c1CCC(=O)O [Orantinib] | – | 1.9 | – | TM Shift LIMK2 (K) [1, 6]: 1.0 K; TM Shift LIMK2 (K) ([1]; LIMK2KD, compound 10 µM, single shot, listed as TSU-68 (SU6668, Orantinib), 10 µM): 2.8 K; TM Shift LIMK1 (K) ([2]; 2 µM LIMK1KD, compound 10 µM, single shot, listed as TSU-68 (SU6668, Orantinib)): 1.7 K
41 | CN1CCC(c2c(O)cc(O)c3c(=O)cc(-c4ccccc4Cl)oc23)C1CO (stereo not shown) [P276-00] | – | – | 0.7 | TM Shift LIMK2 (K) [1, 5]: 1.3 K
